Test results reported in US6150359A, “Naphthyridinones for inhibiting protein tyrosine kinase and cell cycle kinase mediated cellular proliferation” (Warner-Lambert Company, priority 2000, dated 2000).

Tests used:
PDGF receptor = molecular target: T1, PDGF receptor (Rattus norvegicus, UniProt Q05030); assay: PDGF Receptor Autophosphorylation Assay in rat aorta smooth muscle cells; format: cell-based; settings: PDGF-BB 30 ng/mL, 5 minutes, 2 hours preincubation, read-out: Inhibition of PDGF-Stimulated Receptor Autophosphorylation IC50
T1 construct: endogenous in cells; host or cells: rat aorta smooth muscle cells, primary culture, passages 5 to 20
T1 sequence (Q05030 32-1097): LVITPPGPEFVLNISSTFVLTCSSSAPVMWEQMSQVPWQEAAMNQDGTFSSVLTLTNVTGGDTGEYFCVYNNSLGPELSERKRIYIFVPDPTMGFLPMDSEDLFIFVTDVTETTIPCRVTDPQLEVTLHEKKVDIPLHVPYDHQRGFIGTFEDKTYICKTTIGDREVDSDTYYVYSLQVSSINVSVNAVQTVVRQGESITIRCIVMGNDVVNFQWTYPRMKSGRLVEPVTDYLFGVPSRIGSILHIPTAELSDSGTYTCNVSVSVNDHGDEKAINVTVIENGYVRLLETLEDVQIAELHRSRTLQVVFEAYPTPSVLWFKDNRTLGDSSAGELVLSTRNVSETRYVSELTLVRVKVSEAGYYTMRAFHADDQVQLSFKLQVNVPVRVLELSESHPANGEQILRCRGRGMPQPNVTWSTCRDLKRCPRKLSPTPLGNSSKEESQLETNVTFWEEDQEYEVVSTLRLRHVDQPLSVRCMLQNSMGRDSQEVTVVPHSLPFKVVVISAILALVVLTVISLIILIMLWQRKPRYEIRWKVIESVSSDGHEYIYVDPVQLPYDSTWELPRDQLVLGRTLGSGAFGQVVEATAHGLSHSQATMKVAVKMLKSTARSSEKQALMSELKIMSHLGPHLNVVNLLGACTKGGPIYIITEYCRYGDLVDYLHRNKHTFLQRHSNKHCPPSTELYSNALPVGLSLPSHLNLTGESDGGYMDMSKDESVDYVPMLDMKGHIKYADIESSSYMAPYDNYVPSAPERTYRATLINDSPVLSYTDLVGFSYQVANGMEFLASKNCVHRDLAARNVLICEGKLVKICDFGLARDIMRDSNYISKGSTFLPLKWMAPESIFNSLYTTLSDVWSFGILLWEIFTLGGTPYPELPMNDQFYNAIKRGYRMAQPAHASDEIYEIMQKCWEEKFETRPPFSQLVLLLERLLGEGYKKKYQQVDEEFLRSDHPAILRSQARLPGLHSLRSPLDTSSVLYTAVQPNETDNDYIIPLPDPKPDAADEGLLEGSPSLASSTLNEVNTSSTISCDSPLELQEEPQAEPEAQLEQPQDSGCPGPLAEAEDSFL
Protocol: PDGF Receptor Autophosphorylation Assay. Rat aorta smooth muscle cells (RASMC.) are isolated from the thoracic aorta of rats and explanted according to the method of Ross, J. Cell. Biol., 1971;30:172-186. Cells are grown in Dulbecco's modified Eagle's medium (DMEM, Gibco) containing 10% fetal calf serum (FBS, Hyclone, Logan, Utah), 1% glutamine (Gibco), and 1% penicillin/streptomycin (Gibco). Cells are identified as smooth muscle cells by their "hill and valley" growth pattern and by fluorescent staining with a monoclonal antibody specific for SMC […] (Sigma). RASMC are used between passages 5 and 20 for all experiments. Test compounds are prepared in dimethylsulfoxide (DMSO) in order to achieve consistency in the vehicle and to ensure compound solubility. Appropriate DMSO controls are simultaneously evaluated with the test compounds.
Rat aortic smooth muscle cells are grown to confluency in 100 mm dishes. Growth medium is removed and replaced with serum-free medium, and cells are incubated at 37° C. for an additional 24 hours. Test compounds are then added directly to the medium and cells incubated for an additional 2 hours. After 2 hours, PDGF-BB is added at a final concentration of 30 ng/mL for 5 minutes at 37° C. to stimulate autophosphorylation of PDGF receptors. Following growth factor treatment, the medium is removed, and cells are washed with cold phosphate-buffered saline and immediately lysed with 1 mL of lysis buffer (50 mM Hepes, pH 7.5, 150 mM NaCl, 10% glycerol, 1% Triton-X 100, 1 mM EDTA, 1 mM EGTA, 50 mM NaF, 1 mM sodium orthovanadate, 30 mM p-nitrophenyl phosphate, 10 mM sodium pyrophosphate, 1 mM phenylmethyl sulfonyl fluoride, 10 μg/mL aprotinin, and 10 μg/mL leupeptin). Lysates are centrifuged at 10,000×g for 10 minutes. Supernatants are incubated with 10 μL of rabbit anti-human PDGF type AB receptor antibody (1:1000) for 2 hours. Following the incubation, protein-A-sepharose beads are added for 2 hours with continuous mixing, and immune complexes bound to the beads washed four times with 1 mL lysis wash buffer. Immune complexes are solubilized in 40 μL of Laemmli sample buffer and electrophoresed in 8% to 16% SDS polyacrylamide gels. […] Following extensive washing with PBS-0.2% tween-20, the blots are incubated with horseradish peroxidase labeled goat anti-mouse IgG (1:5000; Bio-Rad Inc., Hercules, Calif.), and protein levels are detected by enhanced chemiluminescence (ECL) detection system according to the instructions of the supplier (Amersham Inc., Arlington Heights, Ill.). The density of the protein bands are determined using NIH Image software (v. 1.56) and IC50 values are generated from the densitometric data.

HT-29 cells = assay: Human Colon Carcinoma Growth Delay Assay, HT-29; format: cell-based; settings: 72 h, HT-29, 3 days
Protocol: (§1) Human Colon Carcinoma Growth Delay Assay. Human colon carcinoma cells are seeded into 96-well tissue culture plates in a final volume of 180 μL of 10% fetal bovine serum containing growth media and allowed to incubate overnight (37° C., 5% CO2, 95% air). Cells of the SW-620 cell line are seeded at 1.0-1.5×10^4 cells per well. Cells of the HCT-8 and HT-29 cell lines are seeded at 2-4×10^3 cells per well. Serially diluted drug solutions are prepared in growth medium at 10 times concentration; 20 μL of these solutions are added to duplicate wells and incubated with the cells for 3 days in a cell culture incubator. At the end of the incubation period, cells are fixed with 100 μL per well of 10% trichloroacetic acid after removing the drug/culture medium. The plates are washed five times with tap water and stained with 100 μL per well of 0.075% sulfrhodamine B in 1% acetic acid for 10 minutes. The plates are rinsed four times and allowed to air dry. The stain in the wells are solubilized by the addition of 10 mM unbuffered Tris base and the absorbance read using a microtiter plate optical reader. Inhibition of cell growth is calculated from absorbance data of the treated cells compared to untreated control cells.

HCT-8 cells = assay: Human Colon Carcinoma Growth Delay Assay, HCT-8; format: cell-based; settings: 72 h, HCT-8, 3 days
Protocol: as §1

insulin receptor (INSr) = molecular target: T2, insulin receptor (INSr) (Homo sapiens, UniProt P06213); assay: Insulin receptor (INSr) kinase assay; format: biochemical; settings: 10 mM manganese chloride
T2 construct: An assay using the intracellular kinase domains of insulin receptor (INSr)
T2 sequence (P06213 1023-1298 limits assumed, species assumed): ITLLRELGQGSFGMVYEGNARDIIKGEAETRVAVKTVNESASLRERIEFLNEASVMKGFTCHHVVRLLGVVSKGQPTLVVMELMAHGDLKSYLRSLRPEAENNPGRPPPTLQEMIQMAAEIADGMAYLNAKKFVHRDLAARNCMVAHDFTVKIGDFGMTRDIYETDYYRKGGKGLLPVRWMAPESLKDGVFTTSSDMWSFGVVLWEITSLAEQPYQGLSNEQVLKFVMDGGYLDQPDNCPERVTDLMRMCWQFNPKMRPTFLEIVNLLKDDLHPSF
Protocol: EGFr. Enzyme assays for IC50 determinations are performed in 96-well filter plates (Millipore MADVN6550). The total volume is 0.1 mL containing 20 mM Hepes, pH 7.4, 50 μM sodium vanadate, 40 mM magnesium chloride, 10 μM ATP containing 0.5 μCi of [^32 P]ATP, 20 μg of polyglutamic acid/tyrosine (Sigma Chemical Co., St. Louis, Mo.), 10 ng of EGF receptor tyrosine kinase and appropriate dilutions of inhibitor. All components except the ATP are added to the well, and the plate is incubated with shaking for 10 minutes at 25° C. The reaction is started by adding [^32 P]ATP, and the plate is incubated at 25° C. for 10 minutes. The reaction is terminated by addition of 0.1 mL of 20% trichloroacetic acid (TCA). The plate is kept at 4° C. for at least 15 minutes to allow the substrate to precipitate. The wells are then washed five times with 0.2 mL of 10% TCA, and ^32 P incorporation is determined with a Wallac beta plate counter.
Other Kinases. An assay using the intracellular kinase domains of insulin receptor (INSr) is performed as described for the EGF receptor except that 10 mM manganese chloride is included in the reaction. The PKC assay is performed as previously described by Martiny-Baron, et al., J. Biol. Chem., 1993;268:9194-9197.

| Compound | IC50 (PDGF receptor) [µM] | IC50 (HT-29 cells) [µM] | IC50 (HCT-8 cells) [µM] | IC50 (insulin receptor (INSr)) [µM] |
| --- | --- | --- | --- | --- |
| CCN(CC)CCCCNc1cc2c(cn1)cc(-c1c(Cl)cccc1Cl)c(=O)n2C [Example F, 3-(2,6-dichlorophenyl)-7-[4-(diethylamino)butylamino]-1-methyl-1H-[1,6]naphthyridin-2-one] | 0.49 | 1.5 | 2.3 | > 50 |
| CN1CCN(CCCNc2cc3c(cn2)cc(-c2c(Cl)cccc2Cl)c(=O)n3C)CC1 [Example H, 3-(2,6-dichlorophenyl)-1-methyl-7-[3-(4-methylpiperazin-1-yl)propylamino]-1H-[1,6]naphthyridin-2-one] | > 10 | 2.2 | 2.8 | > 50 |
| CCN(CC)CCOc1ccc(Nc2cc3c(cn2)cc(-c2c(Cl)cccc2Cl)c(=O)n3C)cc1 [Example P, 3-(2,6-dichlorophenyl)-7-[(4-(2-(diethylamino)ethoxy)phenyl)amino]-1-methyl-1H-[1,6]naphthyridin-2-one] | 0.23 | 0.8 | 2.8 | > 50 |
| CN1CCN(CCOc2ccc(Nc3cc4c(cn3)cc(-c3c(Cl)cccc3Cl)c(=O)n4C)cc2)CC1 [Example S, 3-(2,6-dichlorophenyl)-1-methyl-7-[(4-(2-(4-methylpiperazin-1-yl)ethoxy)phenyl)amino]-1H-[1,6]naphthyridin-2-one] | 0.81 | 0.9 | 5.2 | – |
